Activity calls are given as the source filed them. The rule behind the calls is not given here.
Assays:
Candida albicans [1] = assay: microbe, parasite or virus in culture; assay type: functional; settings: 0304103, time 48 hrs
Description: Antifungal activity against azole-resistant Candida albicans 0304103 assessed as fungal growth inhibition incubated for 48 hrs by CLSI based checkerboard microdilution assay

Candida albicans [2] = assay type: functional, 0304103; settings: time 48 hrs
Description: Synergistic antifungal activity against azole-resistant Candida albicans 0304103 assessed as fractional inhibitory concentration in presence of fluconazole incubated for 48 hrs by CLSI based checkerboard microdilution assay

Candida albicans [3] = assay type: functional, 0304103; settings: time 48 hrs; remark: listed apart in the source
Description: Synergistic antifungal activity against azole-resistant Candida albicans 0304103 assessed as fractional inhibitory concentration incubated for 48 hrs by CLSI based checkerboard microdilution assay

Candida albicans [4] = assay type: functional, 0304103; settings: time 48 hrs; remark: listed apart in the source
Description: Synergistic antifungal activity against azole-resistant Candida albicans 0304103 assessed as fractional inhibitory concentration index in presence of fluconazole incubated for 48 hrs by CLSI based checkerboard microdilution assay

A549 = assay: Cytotoxicity against human A549 cells assessed as inhibition of cell growth; assay type: functional, cell-based
HEL = assay: Cytotoxicity against human HEL cells assessed as inhibition of cell growth; assay type: functional, cell-based
Candida albicans [5] = assay: Upregulation of ERG11 expression in azole-resistant Candida albicans 0304103 at 8 ug/ml by RT-PCR analysis; assay type: functional; settings: dose 8.0 µg/ml
[6] = Cytotoxicity against human HaCaT cells assessed as inhibition of cell growth; assay type: toxicity, cell-based
[7] = Inhibition of fungal HDAC using Boc-Lys (acetyl)-AMC as substrate preincubated for 12 hrs followed by substrate addition and measured after 6 hrs by fluorescence-based analysis; set-up: species or system Fungi
[8] = Toxicity in ICR mouse infected with azole-resistant Candida albicans 0304103 assessed as reduction in survival time at 10 mg/kg, ip administered once daily for 5 days; assay type: organism-based; settings: in vivo, 120 h, time 5 day
[9] = Inhibition of fungal HSP90 incubated for 6 hrs in presence of FITC-Geldanamycin by fluorescence polarization analysis; set-up: species or system Fungi
Candida albicans [10] = assay: Inhibition of biofilm formation in azole-resistant Candida albicans 0304103 at 64 ug/ml incubated for 24 hrs by XTT reduction assay; assay type: functional, organism-based; settings: dose 64.0 µg/ml
Candida albicans [11] = assay: Inhibition of biofilm formation in azole-resistant Candida albicans 0304103 assessed as downregulation of […] expression at 64 ug/ml by RT-PCR analysis; assay type: functional, organism-based; settings: dose 64.0 µg/ml
Candida albicans [12] = assay: Inhibition of biofilm formation in azole-resistant Candida albicans 0304103 assessed as downregulation of HWP1 expression at 64 ug/ml by RT-PCR analysis; assay type: functional, organism-based; settings: dose 64.0 µg/ml
Candida albicans [13] = assay: Inhibition of biofilm formation in azole-resistant Candida albicans 0304103 assessed as downregulation of EAP1 expression at 64 ug/ml by RT-PCR analysis; assay type: functional, organism-based; settings: dose 64.0 µg/ml
Candida albicans [14] = assay: Inhibition of biofilm formation in azole-resistant Candida albicans 0304103 assessed as downregulation of BCR1 expression at 64 ug/ml by RT-PCR analysis; assay type: functional, organism-based; settings: dose 64.0 µg/ml
Heat shock protein HSP90 = Heat shock protein HSP90 (Homo sapiens, UniProt P07900+P08238); assay: Inhibition of human HSP90; assay type: protein assay
Histone deacetylase = assay type: protein assay, Homo sapiens
Candida albicans [15] = assay: Downregulation of ERG11 expression in azole-resistant Candida albicans 0304103 at 8 ug/ml in presence of fluconazole by RT-PCR analysis; assay type: functional; settings: dose 8.0 µg/ml
Candida albicans [16] = assay: Downregulation of CDR1 expression in azole-resistant Candida albicans 0304103 at 8 ug/ml in presence of fluconazole by RT-PCR analysis; assay type: functional; settings: dose 8.0 µg/ml
Candida albicans [17] = assay: Antifungal activity against azole-resistant Candida albicans 0304103 infected in ICR mouse assessed as reduction in fungal burden in kidney at 10 mg/kg, ip administered once daily for 5 days in presence of fluconazole; assay type: functional, organism-based; settings: time 5.0 day
Candida albicans [18] = assay: (§1) Antifungal activity against azole-resistant Candida albicans 0304103 infected in ICR mouse assessed as assessed as reduction in fungal burden in kidney by measuring reduction in fungal invasion at 10 mg/kg, ip administered once daily for 5 days in presence of fluconazole by Periodic acid-Schiff staining based analysis; assay type: functional, organism-based; settings: time 5.0 day
Candida albicans [19] = assay: Antifungal activity against azole-resistant Candida albicans 0304103 infected in ICR mouse assessed as reduction in fungal burden in kidney by measuring smooth kidney tissue at 10 mg/kg, ip administered once daily for 5 days in presence of fluconazole by Periodic acid-Schiff staining based analysis; assay type: functional, organism-based; settings: time 5.0 day
Candida albicans [20] = assay: as §1, with “as” for “as assessed as”, “neat and dense arrangement of cells” for “reduction in fungal invasion”; assay type: functional, organism-based; settings: time 5.0 day

| SMILES | MIC80 (Candida albicans [1]) [µg/mL] | FIC (Candida albicans [2]) [µg/mL] | FIC (Candida albicans [3]) [µg/mL] | fractional inhibitory concentration index (FICI) (Candida albicans [4]) | IC50 (A549) [µM] | IC50 (HEL) [µM] | also measured |
| --- | --- | --- | --- | --- | --- | --- | --- |
| CC(C)c1cc(-c2n[nH]c(=O)n2-c2cccc(C(=O)NCCCCCC(=O)NO)c2)c(O)cc1O | > 64 | 64 | 16 | 1.25 | 4.6 | 4.6 | – |
| CC(C)c1cc(-c2n[nH]c(=O)n2-c2cccc(C(=O)NCCCC(=O)NO)c2)c(O)cc1O | > 64 | 64 | 64 | 2 | 4.6 | 4.6 | – |
| OC(Cn1cncn1)(Cn1cncn1)c1ccc(F)cc1F | – | – | – | – | – | – | Activity (Candida albicans [5]): Active |
| CC(C)c1cc(-c2n[nH]c(=O)n2-c2ccc(NC(=O)CCCCCC(=O)NO)cc2)c(O)cc1O | > 64 | 8 | 8 | 0.25 | 0.024 | 0.024 | – |
| CC(C)c1cc(-c2n[nH]c(=O)n2-c2ccc(C(=O)NCCCCCCC(=O)NO)cc2)c(O)cc1O | > 64 | 1 | 16 | 0.266 | 4.6 | 4.6 | – |
| CC(C)c1cc(-c2n[nH]c(=O)n2-c2ccc(C(=O)NCCCCCC(=O)NO)cc2)c(O)cc1O | > 64 | >64 | >64 | 2 | 4.6 | 4.6 | – |
| CC(C)c1cc(-c2n[nH]c(=O)n2-c2ccc(C(=O)NCCCC(=O)NO)cc2)c(O)cc1O | > 64 | 1 | 16 | 0.266 | 4.6 | 4.6 | – |
| CC(C)c1cc(-c2n[nH]c(=O)n2-c2ccc(NC(=O)CCCC(=O)NO)cc2)c(O)cc1O | > 64 | 1 | 4 | 0.078 | 0.024 | 0.024 | – |
| CC(C)c1cc(-c2n[nH]c(=O)n2-c2ccc(NC(=O)CCCCCCC(=O)NO)cc2)c(O)cc1O | > 64 | 4 | 8 | 0.188 | 0.024 | 0.024 | – |
| CC(C)c1cc(-c2n[nH]c(=O)n2-c2ccc(C(=O)NCCCCC(=O)NO)cc2)c(O)cc1O | > 64 | 8 | 4 | 0.188 | 4.6 | 4.6 | – |
| O=C(CCCCCCC(=O)Nc1ccccc1)NO [VORINOSTAT] | – | – | – | – | – | – | IC50 [6]: 1.85 µM; IC50 [7]: 3600 nM; Activity [8]: Toxic |
| CC(C)c1cc(-c2n[nH]c(=O)n2-c2cccc(NC(=O)CCCCC(=O)NO)c2)c(O)cc1O | > 64 | 32 | 64 | 1.5 | 1.6 | 1.6 | – |
| CC(C)c1cc(-c2n[nH]c(=O)n2-c2ccc3c(ccn3C)c2)c(O)cc1O [GANETESPIB] | > 64 | 1 | 0.5 | – | – | – | IC50 [6]: < 0.015 µM; IC50 [9]: 660 nM; Activity [8]: Toxic |
| CC(C)c1cc(-c2n[nH]c(=O)n2-c2cccc(NC(=O)CCCCCCC(=O)NO)c2)c(O)cc1O | > 64 | 2 | 8 | 0.156 | 1.6 | 1.6 | – |
| CC(C)c1cc(-c2n[nH]c(=O)n2-c2ccc(NC(=O)CCCCC(=O)NO)cc2)c(O)cc1O | > 64 | 16 | 16 | 0.5 | 0.024 | 0.024 | – |
| CC(C)c1cc(-c2n[nH]c(=O)n2-c2ccc(C(=O)NCCCCCCCC(=O)NO)cc2)c(O)cc1O | > 64 | 1 | 16 | 0.266 | 4.6 | 4.6 | IC50 [6]: > 6.13 µM; inhibition (Candida albicans [10]): Active; inhibition (Candida albicans [11]): Active; inhibition (Candida albicans [12]): Active; inhibition (Candida albicans [13]): Active; inhibition (Candida albicans [14]): Active; IC50 (Heat shock protein HSP90): 19.52 µM; IC50 [9]: 830 nM; IC50 (Histone deacetylase): 3 µM; IC50 [7]: 910 nM; Activity (Candida albicans [15]): Active; Activity (Candida albicans [16]): Active; Activity (Candida albicans [17]): Active; Activity (Candida albicans [18]): Active; Activity (Candida albicans [19]): Active; Activity (Candida albicans [20]): Active |
| CNC(=O)CCCCCCCNC(=O)c1cccc(-n2c(-c3cc(C(C)C)c(O)cc3O)n[nH]c2=O)c1 | > 64 | 2 | 8 | 0.156 | 4.6 | 4.6 | IC50 [6]: > 6.13 µM |
| CC(C)c1cc(-c2n[nH]c(=O)n2-c2cccc(NC(=O)CCCCCC(=O)NO)c2)c(O)cc1O | > 64 | 32 | 64 | 1.5 | 1.6 | 1.6 | – |
| CC(C)c1cc(-c2n[nH]c(=O)n2-c2cccc(C(=O)NCCCCC(=O)NO)c2)c(O)cc1O | > 64 | 64 | 16 | 1.25 | 4.6 | 4.6 | – |
| CC(C)c1cc(-c2n[nH]c(=O)n2-c2cccc(C(=O)NCCCCCCC(=O)NO)c2)c(O)cc1O | > 64 | 1 | 8 | 0.141 | 4.6 | 4.6 | IC50 [6]: > 6.13 µM; inhibition (Candida albicans [10]): Active; inhibition (Candida albicans [11]): Active; inhibition (Candida albicans [12]): Active; inhibition (Candida albicans [13]): Active; inhibition (Candida albicans [14]): Active |

Source: ChEMBL document CHEMBL5143528, “Heat shock protein 90 (Hsp90)/Histone deacetylase (HDAC) dual inhibitors for the treatment of azoles-resistant Candida albicans” (Eur J Med Chem, 2022)
